Measured values published in article PMC6109769, “Calmodulin Enhances Cryptochrome Binding to INAD in Drosophila Photoreceptors” (Frontiers in Molecular Neuroscience, 2018).

Experiments:
CaM [1] = target: T1, CaM (Xenopus laevis, UniProt P0DP33); assay: ITC titration of peptide into Ca2+-loaded CaM (5 mM CaCl2), single-curve fits; format: binding; details: calculated, T = 298 K
T1 construct: (His)6 (N); made in house; host or cells: Escherichia coli BL21
Description: (§1) Peptide titrations were performed at 25°C using a high-sensitivity VP-isothermal titration calorimetry (ITC) microcalorimeter (MicroCal LLC, Northampton, MA, USA). The reference cell was filled with deionized water. Protein and peptide solutions were prepared by diluting concentrated stock solutions in the reaction buffer (50 mM TrisHCl, pH 7.5, 150 mM NaCl, in the absence or in the presence of 5 mM CaCl2). Apo-protein and peptide solutions were devoid of Ca^2+ ions, as determined by inductively coupled plasma emission spectroscopy, as previously described (Merloni et al., [2014]). […]
(§2) Integrated heat data obtained for each titration were fitted using a nonlinear least-squares minimization algorithm to a theoretical titration curve, using AFFINImeter^2, using both the independent sites and the stoichiometric equilibria approach. ΔH (reaction enthalpy change, cal mol^−1) and Ka (binding constant, M^−1) were the thermodynamic fitting parameters. […] The reaction entropy was calculated using the relationships ΔG = −RTlnKa (R = 1.9872 cal mol^−1 K^−1, T = 298 K) and ΔG = ΔH − TΔS. […] The reliability of the obtained fits was evaluated using the Goodness of Fit (GoF) parameter.

CaM [2] = target: T1, CaM; assay: ITC global fit of single titrations and competition experiment (Scheme 5), 5 mM CaCl2; format: binding; details: calculated from global fit Scheme 5
Description: as §1, §2
The reaction was monitored using ITC. […]

CaM-dCRY complex = format: binding, Xenopus laevis; details: ITC, 5 mM CaCl2; INAD peptide 800 μM over CaM 40 μM + dCRY peptide 40 μM (1:1)
Description: Peptide titrations were performed at 25°C using a high-sensitivity VP-isothermal titration calorimetry (ITC) microcalorimeter (MicroCal LLC, Northampton, MA, USA). The reference cell was filled with deionized water. Protein and peptide solutions were prepared by diluting concentrated stock solutions in the reaction buffer (50 mM TrisHCl, pH 7.5, 150 mM NaCl, in the absence or in the presence of 5 mM CaCl2). Apo-protein and peptide solutions were devoid of Ca^2+ ions, as determined by inductively coupled plasma emission spectroscopy, as previously described (Merloni et al., [2014]). Each experiment started with a small injection of 1–2 μL, which was discarded from the analysis of the integrated data, in order to avoid artifacts due to the diffusion through the injection port occurring during the long equilibration period, locally affecting the protein concentration near the syringe needle tip. Care was taken to start the first addition after baseline stability had been achieved. […] To allow the system to reach equilibrium, a spacing of 300 s was applied between each ligand injection.
The reaction was monitored using ITC. […] A fit of the integrated heat data, however, is quite complex, as the binding curve represents the sum of the contributions of the multiple binding isotherms deriving from the different equilibria involved. […]

ΔS (INAD) (CaM [1]): −11.3 cal mol^−1 K^−1
ΔSINAD, global fit (CaM [2]): +4.42 cal mol^−1 K^−1
Compound: CC[C@H](C)[C@H](NC(=O)[C@H](CCCCN)NC(=O)[C@H](C)NC(=O)[C@H](CCSC)NC(=O)[C@@H](NC(=O)[C@H](Cc1ccc(O)cc1)NC(=O)CNC(=O)[C@H](Cc1ccccc1)NC(C)=O)[C@@H](C)O)C(=O)N[C@@H](CC(N)=O)C(=O)N[C@@H](CCCCN)C(=O)N[C@@H](CCCNC(=N)N)C(=O)N[C@@H](Cc1ccc(O)cc1)C(=O)N[C@@H](CC(N)=O)C(=O)N[C@@H](CCSC)C(N)=O [INAD230–243]
heat of reaction on titration of INAD over CaM preincubated with dCRY (CaM-dCRY complex): absence of significant heat of reaction
